Reference: patent US8273775B2, “Non-steroidal brassinosteroid mimetic” (priority 2006, dated 2012)

Columns and labels:
[1] = system: Arabidopsis thaliana seedlings; experiment: Lateral root formation / root elongation of seedlings on agar plates; assay type: in vivo; conditions: Arabidopsis thaliana; read-out: root elongation and lateral root development inhibited, EC50-value
Procedure: FIG. 3: (A) Phenotypic characterization. WT plants were grown under standard conditions on agar plates. […] Left panel: control plant. Middle panel: abrasin treated plant. Right panel: BL treated plant. (B) Dose response measurements of abrasin using lateral root formation as an indicator of brassinosteroid like activity. Error bars represent standard error of the mean. […] Osram) at 22° C. Three days after germination compounds were added to the 96-well plates at a final concentration of 50 μM. Plants were screened six days after germination for brassinosteroid-related phenotypes. For further phenotypical analysis, all plants were grown on vertically oriented square plates (Greiner Labortechnik, Austria) with solid medium derived from standard Murashige and Skoog medium under the same conditions. For the hypocotyl-elongation assay, plants were grown in the dark at 22° C. under the same conditions.

[2] = system: group I GSK-3 kinases (ASKs); experiment: ASK kinase assay with MBP as substrate, group I; assay type: biochemical, Arabidopsis; conditions: 10 μM abrasin
Procedure: (§1) Coomassie staining was used as a loading control. b, Autoradiography of kinase assays with nine ASKs with MBP as a substrate in the presence or absence of 10 μM abrasin. The second member of group IV, ASKκ, had no kinase activity and was not included in the analysis. c, Autoradiography of kinase assays with AtMPK4, AtMPK6 and MBP as a substrate (left) and with AtAUR1 kinase and histone H3 as a substrate (right) in the presence or absence of 10 μM abrasin.
(§2) For in vitro kinase assays, MBP, MBP-BES1, and MBP-bes1 (20 ng each) were incubated with GST-BIN2 or GST-BRI1 kinase (200 ng each) in 20 μl of kinase buffer (20 mM Tris [pH 7.5], 100 mM NaCl, and 12 mM MgCl2) and 10 μCi ^32P-γATP. After incubation at 37° C. for 40 min, the reactions were stopped by adding 20 μl of 2×SDS buffer and boiling at 94° C. for 5 min. Proteins were resolved by a PAGE gel and phosphorylation was detected by exposing the dried gel to X-ray film. […]
(§3) Besides BIN2, nine additional GSK-3 kinases (also designated ASKs for Arabidopsis SHAGGY-related kinases) divided into four subgroups (I-IV) have been identified in Arabidopsis (Jonak and Hirt, 2002; Yoo et al. 2006). To determine the specificity of abrasin, its effect on the kinase activity of all ASKs was analyzed with myelin basic protein (MBP) as a general substrate. […]

AtMPK6 = AtMPK6 (Arabidopsis thaliana, UniProt Q39026); experiment: Kinase assay with AtMPK6 and MBP as substrate; assay type: biochemical; conditions: 10 μM abrasin
Procedure: as §1, §2, §3

ASKθ (group III) = target: T1, ASKθ (group III) (Arabidopsis thaliana, UniProt Q96287); experiment: ASK kinase assay with MBP as substrate, ASKθ; assay type: biochemical; conditions: 10 μM abrasin; read-out: residual activity
T1 sequence (Q96287 1-472): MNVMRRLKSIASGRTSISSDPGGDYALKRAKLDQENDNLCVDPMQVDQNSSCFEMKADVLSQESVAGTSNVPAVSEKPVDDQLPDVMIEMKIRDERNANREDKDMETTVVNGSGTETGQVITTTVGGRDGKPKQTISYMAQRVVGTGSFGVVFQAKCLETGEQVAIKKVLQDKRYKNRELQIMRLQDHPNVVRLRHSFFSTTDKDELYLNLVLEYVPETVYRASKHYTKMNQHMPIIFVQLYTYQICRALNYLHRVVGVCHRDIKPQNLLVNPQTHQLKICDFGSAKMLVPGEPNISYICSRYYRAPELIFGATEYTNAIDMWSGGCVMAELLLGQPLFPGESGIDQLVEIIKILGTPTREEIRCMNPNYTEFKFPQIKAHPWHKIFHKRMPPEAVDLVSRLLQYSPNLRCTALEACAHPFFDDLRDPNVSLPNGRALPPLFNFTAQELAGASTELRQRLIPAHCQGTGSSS
Procedure: Coomassie staining was used as a loading control. b, Autoradiography of kinase assays with nine ASKs with MBP as a substrate in the presence or absence of 10 μM abrasin.
For in vitro kinase assays, MBP, MBP-BES1, and MBP-bes1 (20 ng each) were incubated with GST-BIN2 or GST-BRI1 kinase (200 ng each) in 20 μl of kinase buffer (20 mM Tris [pH 7.5], 100 mM NaCl, and 12 mM MgCl2) and 10 μCi ^32P-γATP. After incubation at 37° C. for 40 min, the reactions were stopped by adding 20 μl of 2×SDS buffer and boiling at 94° C. for 5 min. Proteins were resolved by a PAGE gel and phosphorylation was detected by exposing the dried gel to X-ray film. Proteins from 35S::bes1-GFP transgenic plants were used for phosphatase (CIP) treatments as described (Fankhauser et al., 1999).
Besides BIN2, nine additional GSK-3 kinases (also designated ASKs for Arabidopsis SHAGGY-related kinases) divided into four subgroups (I-IV) have been identified in Arabidopsis (Jonak and Hirt, 2002; Yoo et al. 2006). To determine the specificity of abrasin, its effect on the kinase activity of all ASKs was analyzed with myelin basic protein (MBP) as a general substrate.

[3] = system: group II GSK-3 kinases (ASKs) including BIN2; experiment: ASK kinase assay with MBP as substrate, group II; assay type: biochemical, Arabidopsis; conditions: 10 μM abrasin
Procedure: as §1, §2, §3

[4] = system: BR-biosynthetic, BR signaling and BR-induced genes; experiment: Real time PCR of BR pathway genes; assay type: in vivo, Arabidopsis thaliana
Procedure: FIG. 7: Q-PCR analysis of genes involved in BR biosynthesis. WT Arabidopsis plants were treated with abrasin (indicated as I5) for 2 hours at a concentration of 30 μM and/or with CHX at a concentration of 30 μM and RNA was extracted from whole plants.
FIG. 8: A: Western Blot analysis of the BES1 protein in 35S:BES1:GFP plants treated with BL and abrasin (indicated as I5 throughout the figure) (A); MG132 with BL or abrasin (B); a time course with abrasin (C) and a concentration gradient with abrasin (D). B: Abrasin and BL induce similar transcriptional regulation of the BR pathway.
RNA was extracted with the RNeasy kit. Poly(dT) cDNA was prepared from […] of total RNA with Superscript III reverse transcriptase (Invitrogen) and quantified on an LightCycler 480 apparatus (Roche) with the SYBR Green I Master kit (Roche) according to the manufacturer's instructions. Target quantifications were performed with specific primer pairs designed with the Beacon Designer 4.0 (Premier Biosoft International). All PCRs were performed in triplicate.
The primers used to quantify gene expression levels were for BAS 1: 5′-[…]-3′ and 5′-[…]-3′; BR6Ox1: 5′-TGGCCAATCTTTGGCGAA-3′ and 5′-[…]-3′; BR6Ox2: 5′-[…]-3′ and 5′-[…]-3′; BRI1: 5′-[…]-3′ and 5′-[…]-3′; CPD: 5′-[…]-3′ and 5′-[…]-3′; DWF4: 5′-[…]-3′ and 5′-[…]-3′ ROT3: 5′-ATTGGCGCGTTCCTCAGAT-3′ and 5′-[…]-3′; BES1: 5′-[…]-3′ and 5′-[…]-3′; BIN2: 5′-[…]-3′ and 5′-[…]-3′; BSU 1: 5′-[…]-3′ and 5′-[…]-3′; BZR1: 5′-[…]-3′ and 5′-[…]-3′; CDKA1; 1: 5′-[…]-3′ and 5′-[…]-3′; EEF1α: 5′-[…]-3′ and 5′-[…]-3′; BKI1: 5′-GCTCCGGCGTCGATGA-3′ and 5′-[…]-3′.

Chain of AtMPK6 (Q39026 whole entry): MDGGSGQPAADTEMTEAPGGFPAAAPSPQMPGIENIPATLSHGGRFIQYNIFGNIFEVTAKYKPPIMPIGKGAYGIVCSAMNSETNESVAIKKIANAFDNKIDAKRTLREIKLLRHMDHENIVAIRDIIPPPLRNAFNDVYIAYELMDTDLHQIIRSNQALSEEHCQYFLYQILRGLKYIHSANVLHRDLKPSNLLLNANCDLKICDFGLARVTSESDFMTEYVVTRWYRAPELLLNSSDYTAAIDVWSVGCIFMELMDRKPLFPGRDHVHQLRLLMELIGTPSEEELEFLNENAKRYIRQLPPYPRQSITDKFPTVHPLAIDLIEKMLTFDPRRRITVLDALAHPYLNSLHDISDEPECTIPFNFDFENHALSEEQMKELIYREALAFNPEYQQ

With O=C(O)CCC(=O)Nc1ccc(Br)cn1 [abrasin, 4-[(5-bromo-2-pyridinyl)amino]-4-oxobutanoic acid] the EC50 [1] was 20 µM, the residual activity [2] was 6-8% and the “effect on kinase activity” value (AtMPK6) was “no effect”. The remaining activity at 10 µM (ASKθ (group III)) was 20%, the residual activity [3] was 1-2 and the “expression of genes downstream of the BRI1 receptor” value ([4]; 30 μM, 2 hours) was “all genes are upregulated”. The “expression of genes involved in biosynthesis and perception” value ([4]; 30 μM, 2 hours) was “regulated in the same way as a BL-treatment” and the “RNA levels of BR biosynthetic, signaling and BR-induced genes” value ([4]; 3-day-old seedlings, Abrasin 30 μM, 6 hours, compared to BL 1 μM) was “the expression profiles resembled closely those of BL treatment”.
